Activity calls are given as the source filed them. The calls are words filed in the database; no cut-off is given here.
Experiments:
MV4-11 [1] = assay: Inhibition of cell viability in human MV4-11 cells incubated for 48 hrs by Alamar blue assay; assay type: functional, cell-based; conditions: MV4-11, 48 h
MOLM-14 [2] = assay: Inhibition of cell viability in human MOLM-14 cells incubated for 48 hrs by Alamar blue assay; assay type: functional, cell-based; conditions: MOLM-14, 48 h
[3] = Inhibition of cell viability in human Gilteritinib-resistant MOLM-14 cells expressing FLT3 F691L mutant incubated for 48 hrs by Alamar blue assay; assay type: functional, cell-based; conditions: Gilteritinib-resistant MOLM-14, 48 h
[4] = Inhibition of cell viability in human Venetoclax-resistant MV4-11 cells overexpressing Bcl-2 incubated for 48 hrs by Alamar blue assay; assay type: functional, cell-based; conditions: Venetoclax-resistant MV4-11, 48 h
[5] = molecular target: Apoptosis regulator Bcl-2 (Homo sapiens, UniProt P10415); assay: Binding affinity to Bcl-2 (unknown origin) assessed as dissociation constant incubated for 1 hr by KINOMEscan assay
Apoptosis regulator Bcl-2, sequence (P10415 whole entry): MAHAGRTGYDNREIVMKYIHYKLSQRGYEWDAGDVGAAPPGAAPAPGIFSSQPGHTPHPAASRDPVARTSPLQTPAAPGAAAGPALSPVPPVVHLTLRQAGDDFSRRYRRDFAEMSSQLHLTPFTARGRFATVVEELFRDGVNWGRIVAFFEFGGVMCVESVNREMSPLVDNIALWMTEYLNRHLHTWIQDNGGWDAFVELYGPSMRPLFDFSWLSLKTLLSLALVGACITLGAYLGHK

[6] = tested on: Gilteritinib-resistant MOLM-14; assay: Induction of apoptosis in human Gilteritinib-resistant MOLM-14 cells expressing FLT3 F691L mutant upto 200 nM incubated for 48 hrs by Annexin V/7AAD staining based flow cytometry; assay type: functional, cell-based
MV4-11 [7] = assay: Induction of apoptosis in human MV4-11 cells assessed as early apoptotic cells at 200 nM incubated for 48 hrs by Annexin V/7AAD staining based flow cytometry (reference value: 2.3 %); assay type: functional
MV4-11 [8] = assay: Induction of apoptosis in human MV4-11 cells assessed as late apoptotic cells at 200 nM incubated for 48 hrs by Annexin V/7AAD staining based flow cytometry (reference value: 1.7 %); assay type: functional
MV4-11 [9] = assay: Induction of apoptosis in human MV4-11 cells assessed as viable cells at 200 nM incubated for 48 hrs by Annexin V/7AAD staining based flow cytometry (reference value: 95.6 %); assay type: functional; conditions: read-out: Activity
[10] = molecular target: T1, Receptor-type tyrosine-protein kinase FLT3 (Homo sapiens, UniProt P36888); assay: Binding affinity to FLT3 (unknown origin) assessed as dissociation constant incubated for 1 hr by KINOMEscan assay
T1 sequence (P36888 whole entry): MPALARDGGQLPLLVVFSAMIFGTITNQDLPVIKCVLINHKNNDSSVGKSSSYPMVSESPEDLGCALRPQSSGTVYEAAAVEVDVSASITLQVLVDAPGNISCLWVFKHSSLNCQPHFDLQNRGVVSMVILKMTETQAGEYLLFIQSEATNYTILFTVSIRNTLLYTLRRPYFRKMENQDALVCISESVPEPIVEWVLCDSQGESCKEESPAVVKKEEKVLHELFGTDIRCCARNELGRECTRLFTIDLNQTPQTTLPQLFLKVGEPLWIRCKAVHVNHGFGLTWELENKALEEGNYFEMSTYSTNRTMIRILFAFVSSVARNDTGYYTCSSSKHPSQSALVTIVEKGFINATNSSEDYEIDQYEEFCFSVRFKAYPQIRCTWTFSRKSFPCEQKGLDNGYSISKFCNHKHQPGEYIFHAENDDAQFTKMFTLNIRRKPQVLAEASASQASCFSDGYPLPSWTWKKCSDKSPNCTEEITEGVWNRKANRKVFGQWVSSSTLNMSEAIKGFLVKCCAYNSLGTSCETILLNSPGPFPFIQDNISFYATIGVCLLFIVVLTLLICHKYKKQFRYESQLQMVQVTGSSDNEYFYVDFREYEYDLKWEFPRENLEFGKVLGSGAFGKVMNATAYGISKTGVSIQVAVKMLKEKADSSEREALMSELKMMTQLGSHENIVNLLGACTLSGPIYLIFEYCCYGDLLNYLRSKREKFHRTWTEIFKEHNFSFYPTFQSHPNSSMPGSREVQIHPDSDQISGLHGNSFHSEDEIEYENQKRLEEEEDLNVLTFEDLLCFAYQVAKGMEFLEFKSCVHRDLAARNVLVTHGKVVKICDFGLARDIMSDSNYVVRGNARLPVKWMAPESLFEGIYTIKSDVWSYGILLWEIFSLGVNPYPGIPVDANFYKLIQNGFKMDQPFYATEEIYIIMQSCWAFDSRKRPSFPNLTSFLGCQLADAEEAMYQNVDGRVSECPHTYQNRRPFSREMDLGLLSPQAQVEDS

[11] = tested on: Venetoclax-resistant MV4-11; assay: Induction of apoptosis in human Venetoclax-resistant MV4-11 cells overexpressing Bcl-2 upto 200 nM incubated for 48 hrs by Annexin V/7AAD staining based flow cytometry; assay type: functional, cell-based
MV4-11 [12] = assay: Induction of apoptosis in human MV4-11 cells assessed as late apoptotic cells at 200 nM incubated for 48 hrs in presence of GIL by Annexin V/7AAD staining based flow cytometry (reference value: 1.7 %); assay type: functional
MV4-11 [13] = assay: Inhibition of cell viability in human MV4-11 cells incubated for 48 hrs in presence of GIL by Alamar blue assay; conditions: MV4-11, 48 h
MOLM-14 [14] = assay: Inhibition of cell viability in human MOLM-14 cells incubated for 48 hrs in presence of GIL by Alamar blue assay; assay type: functional, cell-based; conditions: MOLM-14, 48 h
[15] = Inhibition of cell viability in human Venetoclax-resistant MV4-11 cells overexpressing Bcl-2 incubated for 48 hrs in presence of GIL by Alamar blue assay; assay type: functional, cell-based; conditions: Venetoclax-resistant MV4-11, 48 h
[16] = Inhibition of cell viability in human Gilteritinib-resistant MOLM-14 cells expressing FLT3 F691L mutant incubated for 48 hrs in presence of GIL by Alamar blue assay; assay type: functional, cell-based; conditions: Gilteritinib-resistant MOLM-14, 48 h
MV4-11 [17] = assay: Induction of apoptosis in human MV4-11 cells assessed as viable cells at 200 nM incubated for 48 hrs in presence of GIL by Annexin V/7AAD staining based flow cytometry (reference value: 95.6 %); assay type: functional; conditions: read-out: Activity
MV4-11 [18] = assay: Induction of apoptosis in human MV4-11 cells assessed as early apoptotic cells at 200 nM incubated for 48 hrs in presence of GIL by Annexin V/7AAD staining based flow cytometry (reference value: 2.3 %); assay type: functional
MV4-11 [19] = assay: Inhibition of cell viability in human MV4-11 cells incubated for 48 hrs in presence of VEN by Alamar blue assay; conditions: MV4-11, 48 h
cells [20] = conditions: Homo sapiens, Gilteritinib-resistant MOLM-14, 48 h
cells [21] = conditions: Homo sapiens, Venetoclax-resistant MV4-11, 48 h
MOLM-14 [22] = assay: Inhibition of cell viability in human MOLM-14 cells incubated for 48 hrs in presence of VEN by Alamar blue assay; conditions: MOLM-14, 48 h
MV4-11 [23] = assay: Induction of apoptosis in human MV4-11 cells assessed as viable cells at 200 nM incubated for 48 hrs in presence of VEN by Annexin V/7AAD staining based flow cytometry (reference value: 95.6 %); assay type: functional; conditions: read-out: Activity
MV4-11 [24] = assay: Induction of apoptosis in human MV4-11 cells assessed as early apoptotic cells at 200 nM incubated for 48 hrs in presence of VEN by Annexin V/7AAD staining based flow cytometry (reference value: 2.3 %); assay type: functional
MV4-11 [25] = assay: Induction of apoptosis in human MV4-11 cells assessed as late apoptotic cells at 200 nM incubated for 48 hrs in presence of VEN by Annexin V/7AAD staining based flow cytometry (reference value: 1.7 %); assay type: functional

Structure (SMILES)	IC50 (MV4-11 [1]) [nM]	IC50 (MOLM-14 [2]) [nM]	IC50 [3] [nM]	IC50 [4] [nM]	other results
CCc1nc(C(N)=O)c(Nc2ccc(N3CCC(N4CCN(C(=O)C5CCN(c6ccc(S(=O)(=O)NC(=O)c7ccc(N8CCN(CC9=C(c%10ccc(Cl)cc%10)CC(C)(C)CC9)CC8)cc7Oc7cnc8[nH]ccc8c7)cc6[N+](=O)[O-])CC5)CC4)CC3)c(OC)c2)nc1NC1CCOCC1	1170	> 10000	> 10000	> 10000	
CCc1nc(C(N)=O)c(Nc2ccc(N3CCN(C(=O)CNc4ccc(S(=O)(=O)NC(=O)c5ccc(N6CCN(CC7=C(c8ccc(Cl)cc8)CC(C)(C)CC7)CC6)cc5Oc5cnc6[nH]ccc6c5)cc4[N+](=O)[O-])CC3)c(OC)c2)nc1NC1CCOCC1	54.7	265	1700	162	Kd [5]: 4.25 nM; Activity [6]: inactive; Activity (MV4-11 [7]): 18.6%; Activity (MV4-11 [8]): 27.9%; viability at 0.2 µM (MV4-11 [9]): 52.2%; Kd [10]: 63 nM; Activity [11]: inactive
CCc1nc(C(N)=O)c(Nc2ccc(N3CCN(C(=O)C4CCN(c5ccc(S(=O)(=O)NC(=O)c6ccc(N7CCN(CC8=C(c9ccc(Cl)cc9)CC(C)(C)CC8)CC7)cc6Oc6cnc7[nH]ccc7c6)cc5[N+](=O)[O-])CC4)CC3)c(OC)c2)nc1NC1CCOCC1	968	> 10000	> 10000	3220	
CCc1nc(C(N)=O)c(Nc2ccc(N3CCC(N4CCN(C(=O)CNc5ccc(S(=O)(=O)NC(=O)c6ccc(N7CCN(CC8=C(c9ccc(Cl)cc9)CC(C)(C)CC8)CC7)cc6Oc6cnc7[nH]ccc7c6)cc5[N+](=O)[O-])CC4)CC3)c(OC)c2)nc1NC1CCOCC1	33.7	1070	> 10000	209	Kd [5]: 0.91 nM; Activity [6]: inactive; Activity (MV4-11 [7]): 25.7%; Activity (MV4-11 [8]): 42.1%; viability at 0.2 µM (MV4-11 [9]): 30.7%; Kd [10]: 205 nM; Activity [11]: inactive
CCc1nc(C(N)=O)c(Nc2ccc(N3CCN(C(=O)CCCCCCNc4ccc(S(=O)(=O)NC(=O)c5ccc(N6CCN(CC7=C(c8ccc(Cl)cc8)CC(C)(C)CC7)CC6)cc5Oc5cnc6[nH]ccc6c5)cc4[N+](=O)[O-])CC3)c(OC)c2)nc1NC1CCOCC1	107	531	3280	280	
CC1(C)CCC(CN2CCN(c3ccc(C(=O)NS(=O)(=O)c4ccc(NCC5CCOCC5)c([N+](=O)[O-])c4)c(Oc4cnc5[nH]ccc5c4)c3)CC2)=C(c2ccc(Cl)cc2)C1 [VENETOCLAX]		1700	2010	756	Activity (MV4-11 [12]): 66.9%; IC50 (MV4-11 [13]): 2.6 nM; IC50 (MOLM-14 [14]): 16.4 nM; IC50 [15]: 8.7 nM; IC50 [16]: 63.2 nM; viability at 0.2 µM (MV4-11 [17]): 0.4%; Activity (MV4-11 [18]): 31.1%
CCc1nc(C(N)=O)c(Nc2ccc(N3CCC(N4CCN(C(=O)CCCCCCNc5ccc(S(=O)(=O)NC(=O)c6ccc(N7CCN(CC8=C(c9ccc(Cl)cc9)CC(C)(C)CC8)CC7)cc6Oc6cnc7[nH]ccc7c6)cc5[N+](=O)[O-])CC4)CC3)c(OC)c2)nc1NC1CCOCC1	94	3330	> 10000	907	
CCc1nc(C(N)=O)c(Nc2ccc(N3CCC(N4CCN(C)CC4)CC3)c(OC)c2)nc1NC1CCOCC1 [GILTERITINIB]	14.7	25.7	128	53.7	IC50 (MV4-11 [19]): 2.6 nM; IC50 (cells [20]): 63.2 nM; IC50 (cells [21]): 8.7 nM; IC50 (MOLM-14 [22]): 16.4 nM; viability at 0.2 µM (MV4-11 [23]): 0.4%; Activity (MV4-11 [24]): 31.1%; Activity (MV4-11 [25]): 66.9%
